The target in one experiment is T1, human Nox4 (Homo sapiens, UniProt Q9NPH5).
T1 construct: expressed in transfected cells; host or cells: T-REx-293 (hNOX4 T-REx-293), tetracycline-induced; membrane fraction
T1 sequence (Q9NPH5 1-578): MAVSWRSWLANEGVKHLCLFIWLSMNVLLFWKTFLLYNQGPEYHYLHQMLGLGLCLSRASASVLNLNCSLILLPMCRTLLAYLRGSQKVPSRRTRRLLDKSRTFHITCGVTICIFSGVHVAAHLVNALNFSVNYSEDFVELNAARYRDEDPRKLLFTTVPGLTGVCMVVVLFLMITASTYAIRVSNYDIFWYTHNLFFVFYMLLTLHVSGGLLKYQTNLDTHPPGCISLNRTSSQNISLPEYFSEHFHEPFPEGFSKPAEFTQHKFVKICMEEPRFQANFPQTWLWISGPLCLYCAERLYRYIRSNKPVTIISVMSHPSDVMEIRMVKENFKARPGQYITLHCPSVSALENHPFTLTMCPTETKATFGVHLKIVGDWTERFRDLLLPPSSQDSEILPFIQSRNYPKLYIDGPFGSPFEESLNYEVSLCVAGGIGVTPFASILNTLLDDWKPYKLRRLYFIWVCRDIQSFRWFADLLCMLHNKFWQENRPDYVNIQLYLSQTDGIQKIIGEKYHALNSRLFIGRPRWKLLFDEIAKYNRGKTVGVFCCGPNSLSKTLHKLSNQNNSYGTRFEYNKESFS
T1 sequence (P13498 2-195 partner limits assumed): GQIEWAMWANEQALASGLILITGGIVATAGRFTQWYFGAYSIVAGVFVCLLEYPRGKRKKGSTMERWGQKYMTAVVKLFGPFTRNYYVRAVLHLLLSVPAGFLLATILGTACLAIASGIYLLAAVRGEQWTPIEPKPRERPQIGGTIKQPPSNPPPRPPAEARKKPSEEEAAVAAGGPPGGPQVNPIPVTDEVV
The experiment can be described thus: ROS production by membranes expressing human Nox4, cell-free Amplex Red assay. It is filed as biochemical. To be noted: cell-free membranes, Amplex Red; Cheng-Prusoff; average of at least three experiments in triplicate; read-out: Ki hNox4. The text has this:
(§1) The Nox4 activity of Nox4 inhibitors according to the invention may be tested for their activity in the inhibition or reduction of formation of reactive oxygen species (ROS) from oxygen in cell free assays. In order to fully characterise Nox4 inhibitors, Nox subunit-specific cell-free, membrane-based systems have been developed and specific recombinant proteins have been added to membranes heterologously over-expressing their specific iso form. Nox enzymes produce superoxide (O2.−) as primary product, however due to the high instability and reactivity of this molecule which dismutates naturally into hydrogen peroxide (H2O2), therefore, read-out techniques involving probes that do measure H2O2 were used (e.g. using Amplex Red as a probe in order to facilitate consistent and accurate measurements). The activity of the compounds is tested in the following cell free assay using the techniques described here below:
Transfected T-REx™-CHO cells (R718-07) purchased from Invitrogen and T-REx™-293 cell line expressing hNOX4 (hNOX4 T-REx™-293) (Serrander et al., 2007, Biochem. J., 406, 105-114) were cultured in […]. Both media were supplemented with 10% FBS, 2 mM glutamine, penicillin (100 U/ml) and streptomycin (100 μg/ml). Selection pressure was maintained by continuous inclusion of blasticidin (5 μg/ml), and/or G418 (0.25 mg/ml), and/or Hygromycin (0.25 mg/ml) and/or zeocin (0.025 mg/ml).
(§2) Human Nox1, Nox2, Nox4, and Nox5 expression were induced with Tetracycline (1 μg/ml) during 24 h prior to the membrane preparation Membranes from transfected cells overexpressing Nox1, Nox2, Nox4 or Nox5 were prepared as previously described in Palicz et al., 2001, J. Biol. Chem., 76, 3090-3097. After resuspension in sonication buffer (11% sucrose, 120 mM NaCl, 1 mM EGTA in PBS, pH 7.4 for Nox4- or NOX5-expressing cells) or in relax buffer (10 mM Pipes, 3 mM NaCl, 3.5 mM MgCl2, 0.1M KCl, pH 7.4), cells were broken by sonication and centrifuged (200 g, 10 min). The supernatant was layered onto a 17/40% (w/v) discontinuous sucrose gradient and centrifuged (150,000×g for 60 min). Membrane fractions were collected from the 17/40% interface and were stored at −80° C. Protein concentration was determined with the Bradford reagent.
(§3) Reactive Oxygen Species (ROS) production by membranes expressing either human Nox1, or human Nox2 or human Nox4 or human Nox5 or by xanthine/xanthine oxidase were measured using the Amplex Red (AR) method following a slightly modified version of the manufacturer's instruction manual (Invitrogen). Briefly, membranes or xanthine were incubated in PBS with Amplex Red, Horse Radish Peroxidase (HRP) and appropriated co-factors. ROS production was induced by addition of NADPH to NOX-expressing membrane or by addition of xanthine to xanthine oxidase. Non-specific signal was measured in the absence of membranes or in the absence of xanthine.
Antagonist activity of compounds was measured in the presence of increasing concentrations ranging from 1 nM to 100 μM. After an incubation of 20 min in a plate shaker and incubator (Titramax 1000, VWR) at 37° C. with weak agitation (300 rpm), ROS levels were measured for 10 min in a BMG Fluostar microplate reader with excitation and emission wavelengths of 544 nm and 590 nm respectively.
Data were analysed using Prism (GraphPad Software Inc., San Diego, Calif.). Ki values were calculated using the Cheng-Prusoff equation and represent the average of at least three individual experiments performed in triplicate (Table 1). Nox4 inhibition was compared to that measured for Simvastatin (Enzo Life Sciences, CAS Number 79902-63-9) using the method described in Example 1. Reactive Oxygen Species (ROS) production by membranes expressing human Nox4 was measured using the Amplex Red (AR).

In the next experiment the target is T2, human Nox2 (Homo sapiens, UniProt P04839).
T2 construct: host or cells: T-REx-CHO (hNOX2 T-REx-CHO), tetracycline-induced; membrane fraction
T2 sequence (P04839 2-570 limits assumed): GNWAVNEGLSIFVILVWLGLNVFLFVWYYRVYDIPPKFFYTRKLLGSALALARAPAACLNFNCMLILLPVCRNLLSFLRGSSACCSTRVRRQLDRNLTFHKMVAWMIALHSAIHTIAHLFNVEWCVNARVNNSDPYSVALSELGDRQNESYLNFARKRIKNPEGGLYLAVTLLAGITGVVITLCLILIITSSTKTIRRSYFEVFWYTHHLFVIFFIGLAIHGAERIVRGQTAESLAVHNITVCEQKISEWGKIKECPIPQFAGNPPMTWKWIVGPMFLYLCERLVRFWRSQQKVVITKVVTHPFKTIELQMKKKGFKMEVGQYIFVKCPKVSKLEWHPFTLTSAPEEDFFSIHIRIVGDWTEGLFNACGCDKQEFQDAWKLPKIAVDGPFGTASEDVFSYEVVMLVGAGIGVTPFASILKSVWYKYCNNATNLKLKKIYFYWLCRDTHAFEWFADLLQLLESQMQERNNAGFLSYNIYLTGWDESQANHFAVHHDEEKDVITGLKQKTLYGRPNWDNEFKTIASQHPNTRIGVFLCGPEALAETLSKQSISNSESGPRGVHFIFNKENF
T2 sequence (P13498 2-195 partner limits assumed): T1 sequence (P13498 2-195 partner limits assumed)
The experiment can be described thus: ROS production by membranes expressing human Nox2, cell-free Amplex Red assay. The format is biochemical. To be noted: cell-free membranes, Amplex Red; Cheng-Prusoff; average of at least three experiments in triplicate; read-out: Ki hNox2.
Excerpt: as §1
Human Nox1 (NM_007052.4), human NOX2 (NM_000397), and human NOX5 (NM_0245052244) cDNAs were cloned into the pcDNA5/TO (Invitrogen). Human p22 (NM_000101.2) was cloned into pcDNA3.1/Zeo (+) (Invitrogen), and human NOXA1 (AY255769.1) and human NOXO1 (AB097667) were cloned into the bi-cistronic pVITRO1-neo-mcs plasmid (Invivogen).
Cells were transfected by using the FuGENE 6 method. Cells stably expressing functional human Nox1 (hNOX1 T-REx™-CHO) were obtained by co-transfecting T-REx™-CHO cells with human Nox1, human p22, human NOXA1 and human NOXO1. Cells stably expressing functional human Nox2 (hNOX2 T-REx™-CHO) were obtained by co-transfecting T-REx™-CHO cells with human nox2, human p22 and human cofactors. Cells stably expressing functional human Nox5 (hNOX5 T-REx™-CHO) were obtained by transfecting T-REx™-CHO cells with human Nox5. Co-transfected cells were selected with the appropriate antibiotics for 10 days. For the selection, hygromycin and G418 were used at 2 mg/ml and zeocin at 0.1 mg/ml. For the establishment of each stably transfected cell line, a pool of antibiotic-resistant cells was generated. Cells were cloned by limiting dilution. Several clones were established and investigated for ROS production upon tetracycline-induced hNox expression using a cellular AR assay. The expression of NOXes was done with tetracycline (1 μg/ml) during 24 h prior to the assay.
as §2, §3
Antagonist activity of compounds was measured in the presence of increasing concentrations ranging from 1 nM to 100 μM. […]

Each structure is given as a SMILES string.

Broadly, the Ki is the dissociation constant of the complex between target and ligand, obtained from inhibition or displacement. Take `COc1ccc(-c2c3c(=O)n(-c4ccccc4Cl)[nH]c3cc(=O)n2Cc2cnccn2)cc1` [(2), 2-(2-chlorophenyl)-4-(4-methoxyphenyl)-5-(pyrazin-2-ylmethyl)-1H-pyrazolo[4,3-c]pyridine-3,6(2H,5H)-dione]: the Ki on human Nox4 is 48 nM; at human Nox2 it was 670 nM.
The like results for `COc1ccccc1-n1[nH]c2cc(=O)n(Cc3cnccn3)c(-c3ccc(Cl)cc3)c2c1=O` [(3), 4-(4-chlorophenyl)-2-(2-methoxyphenyl)-5-(pyrazin-2-ylmethyl)-1H-pyrazolo[4,3-c]pyridine-3,6(2H,5H)-dione] were, in that order, 57 nM and 735 nM.
In the same order, the values of `COc1ccc(-c2c3c(=O)n(-c4ccccc4Cl)[nH]c3cc(=O)n2Cc2ccn(C)n2)c(F)c1` [(4), 2-(2-chlorophenyl)-4-(2-fluoro-4-methoxyphenyl)-5-[(1-methyl-1H-pyrazol-3-yl)methyl]-1H-pyrazolo[4,3-c]pyridine-3,6(2H,5H)-dione] are 61 nM and 813 nM.
As for `COc1ccc(F)c(-c2c3c(=O)n(-c4ccccc4OC)[nH]c3cc(=O)n2Cc2cccnc2)c1` [(5), 4-(2-fluoro-5-methoxyphenyl)-2-(2-methoxyphenyl)-5-(pyridin-3-ylmethyl)-1H-pyrazolo[4,3-c]pyridine-3,6(2H,5H)-dione], the values for the Ki at human Nox4 and at human Nox2 were 63 nM and 730 nM, respectively.
In the same order, the values of `COc1cc(Cn2c(C)c3c(=O)n(-c4ccccc4Cl)[nH]c3cc2=O)ccn1` [(6), 2-(2-chlorophenyl)-5-[(2-methoxypyridin-4-yl)methyl]-4-methyl-1H-pyrazolo[4,3-c]pyridine-3,6(2H,5H)-dione] are 69 nM and 715 nM.
In the case of `COc1ccccc1-n1[nH]c2cc(=O)n(Cc3cccnc3)c(C)c2c1=O` [(7), 2-(2-methoxyphenyl)-4-methyl-5-(pyridin-3-ylmethyl)-1H-pyrazolo[4,3-c]pyridine-3,6(2H,5H)-dione], the inhibition constant (Ki) on human Nox4 amounted to 72 nM; on human Nox2, 1170 nM.
The like results for `COc1ccccc1-n1[nH]c2cc(=O)n(Cc3cccnc3)c(-c3ccc(Cl)cc3F)c2c1=O` [(8), 4-(4-chloro-2-fluorophenyl)-2-(2-methoxyphenyl)-5-(pyridin-3-ylmethyl)-1H-pyrazolo[4,3-c]pyridine-3,6(2H,5H)-dione] were, in that order, 73 nM and 750 nM.
For `O=c1c2c(-c3cc(Cl)ccc3F)n(Cc3cccnc3)c(=O)cc2[nH]n1-c1ccccc1Cl` [(9), 4-(5-chloro-2-fluorophenyl)-2-(2-chlorophenyl)-5-(pyridin-3-ylmethyl)-1H-pyrazolo[4,3-c]pyridine-3,6(2H,5H)-dione], the inhibition constant (Ki) on human Nox4 was 74 nM; at human Nox2, 650 nM.
The like results for `COc1ccc(Cn2c(C)c3c(=O)n(-c4ccccc4Cl)[nH]c3cc2=O)cn1` [(10), 2-(2-chlorophenyl)-5-[(6-methoxypyridin-3-yl)methyl]-4-methyl-1H-pyrazolo[4,3-c]pyridine-3,6(2H,5H)-dione] were, in that order, 74 nM and 700 nM.
The like results for `O=c1c2c(-c3ccc(Cl)cc3F)n(Cc3cccnc3)c(=O)cc2[nH]n1-c1ccccc1Cl` [(11), 4-(4-chloro-2-fluorophenyl)-2-(2-chlorophenyl)-5-(pyridin-3-ylmethyl)-1H-pyrazolo[4,3-c]pyridine-3,6(2H,5H)-dione] were, in that order, 75 nM and 563 nM.
The like results for `COc1ccc(F)c(-c2c3c(=O)n(-c4ccccc4OC)[nH]c3cc(=O)n2Cc2ccn(C)n2)c1` [(13), 4-(2-fluoro-5-methoxyphenyl)-2-(2-methoxyphenyl)-5-[(1-methyl-1H-pyrazol-3-yl)methyl]-1H-pyrazolo[4,3-c]pyridine-3,6(2H,5H)-dione] were, in that order, 80 nM and 985 nM.
Take `COc1ccccc1-n1[nH]c2cc(=O)n(Cc3cccnc3)c(-c3cc(Cl)ccc3F)c2c1=O` [(14), 4-(5-chloro-2-fluorophenyl)-2-(2-methoxyphenyl)-5-(pyridin-3-ylmethyl)-1H-pyrazolo[4,3-c]pyridine-3,6(2H,5H)-dione]: the values for the Ki on human Nox4 and on human Nox2 were 81 nM and 695 nM, respectively.

Values taken from patent publication US20140323500A1, “NADPH OXIDASE 4 INHIBITORS AND USE THEREOF” (GENKYOTEX SA, priority 2011, published 2014).
